Assays:
[1] = test system: proximal colon mucosa submucosa preparations from germ free mice; assay: Ussing chamber short circuit current (Isc) in response to CDCA, colon mucosa-submucosa preparations; details: CDCA applied basolaterally, n=3, Wilcoxon, FIG. 4E
Excerpt: FIGS. 4A-4E: An integrated metabolomics approach provides mechanistic insight into the effect of gut microbiota metabolism on host physiology. FIG. 4A is a series of graphs plotting the abundance of propionate (left), butyrate (center), and acetate (right) as determined by ^1H NMR using stool samples from healthy, IBS-C, and IBS-D subjects (averaged data per subject, pairwise Mann-Whitney tests). FIG. 4B is a pair of graphs plotting the abundance of tryptophan (left) and tryptamine (right) as determined by LC-MS in stool samples from healthy, IBS-C, and IBS-D subjects (averaged data per subject, pairwise Mann-Whitney tests). FIG. 4C is a series of graphs plotting the abundance of cholic acid (CA, left panel), chenodeoxycholic acid (CDCA, center panel), and deoxycholic acid sulfate (DCA-S, right panel) as determined by ^1H NMR with stool samples from healthy, IBS-C, and IBS-D subjects (mixed linear models correcting for subject). FIG. 4D is a series of graphs plotting the abundance of CA, CDCA, and DCA-S as determined by ^1H NMR using stool samples from healthy, IBS-C, and IBS-D subjects (averaged data per subject, pairwise Mann-Whitney tests). […]
Ussing chamber experiments: Colonic mucosal secretory responses were assessed using Ussing chamber setups. […]

[2] = test system: colonic biopsies from healthy, IBS-C, and IBS-D subjects; assay: Ussing chamber short circuit current (ΔIsc) in response to serotonin (5-HT), colonic biopsies; set-up: species or system human; details: cumulative concentrations of 5-HT applied basolaterally; biopsies from IBS-C patients versus HC; FIG. 3C
Excerpt: FIGS. 3A-3F: Integrated top-down bottom-up approach provides mechanistic insight into the effect of gut microbiota metabolism on host physiology. FIG. 3A is a series of graphs plotting the abundance of propionate (left), butyrate (center), and acetate (right) as determined by ^1H NMR. The data are shown as mixed linear models correcting for subject in stool samples from healthy, IBS-C, and IBS-D subjects. FIG. 3B is a graph plotting the abundance of acetate in colonic biopsies. FIG. 3C is a graph plotting maximal ΔIsc (Imax) following application of cumulative concentrations of serotonin (5-HT) basolaterally in colonic biopsies from healthy, IBS-C, and IBS-D subjects. FIG. 3D is a graph plotting baseline Isc observed in colonic biopsies from healthy, IBS-C, and IBS-D subjects (P-values are Tukey HSD adjusted from a linear model). FIG. 3E is a pair of graphs plotting the abundance of tryptophan (left) and tryptamine (right) in stool samples from healthy, IBS-C, and IBS-D subjects. […]
Ussing chamber experiments: Colonic mucosal secretory responses were assessed using Ussing chamber setups. […] Short circuit current (Isc) was continuously recorded using Acquire and Analyze software (Physiologic Instruments). ΔIsc values were calculated using Isc measurements before and after application of compounds to the basolateral side and normalized to the tissue area. […]

Row | Structure (SMILES) | Isc in response to CDCA (ΔIsc, Imax) [1] | secretory response (maximal ΔIsc, Imax) to serotonin (5-HT) [2]
1 | C[C@H](CCC(=O)O)[C@H]1CC[C@H]2[C@@H]3[C@H](O)C[C@@H]4C[C@H](O)CC[C@]4(C)[C@H]3CC[C@]12C [CDCA, chenodeoxycholic acid] | significant increase in Isc | –
2 | NCCc1c[nH]c2ccc(O)cc12 [serotonin (5-HT), serotonin] | – | significantly lower than HC
